One series relates to Eimeria tenella. Description: AZL application in preventing the coccidiosis induced by Eimeria tenella (drug in feed, infected cockerels). Also noted: key to ACI (anticoccidial index): ACI = (rel. weight gain + survival) − (lesion score + oocyst value); key to Cecal lesion score: average Johnson-Reid lesion score in group ×10. Particulars: for ACI (anticoccidial index): ACI=(relative weight gain rate+survival rate)-(cecal lesion score+oocyst value); for Cecal lesion score: average lesion score in group x10; for Survival rate %: cockerels infected with 80000 sporulated oocysts of Eimeria tenella; for Relative weight gain rate %: relative to healthy control group; for Oocyst value: score from OPG ratio to infection control. Type of series: in vivo. The protocol:
Application of AZL in Preventing the Coccidiosis Induced by Eimeria tenella
One-day-old Pudong yellow feather cockerels
If needed, it is added into the chicken compound feed without other drugs and well mixed. Two AZL concentrations are set: 5 mg/kg and 10 mg/kg.
If needed, it is added into the compound feed without other drugs and well mixed. Two drug concentrations are set: 5 mg/kg and 10 mg/kg.
4) Raw diclazuril material: If needed, it is added into the compound feed without other drugs and well mixed, with the diclazuril concentration of 1 mg/kg.
After 90 one-day-old Pudong yellow feather cockerels were raised in the healthy animal room for 14 days. They were divided into 9 groups randomly, with 10 cockerels each group. One of these groups was the healthy control group. The AZL addition groups had two different treatments (5 mg/kg and 10 mg/kg). In the groups with the addition of compounds with structural formula (IV) and (V) respectively, two concentrations were set as AZL. The diclazuril addition group at the concentration of 1 mg/kg was taken as drug control group. Besides, an infection control group was also established.
After grouping, the seven drug addition groups were fed with the feed containing specified drugs, while infection and healthy control groups were fed using pure feed without drugs. Each group drank freely. At the age of 15 day old, each cockerel in all the groups was infected with 80000 sporulated oocysts of Eimeria tenella, except for the healthy control group.
During the experimental period, food and water intake, mental state, illness and bloody stool were observed and recorded every day. At 5, 6 and 7 d after infection, the excrement in each group was collected to count the number of oocysts. The highest value was used for ACI calculation. During the experimental period, chicken death status was observed every day and the dead ones were autopsied. On the 8th day, chickens in all the groups were weighted and killed to observe and record weight gain and cecal lesion status.
1.5.1 Death rate: The percentage of the number of dead chicken because of infection to total number of experimental chicken.
1.5.2 Relative weight gain rate: The percentage of average weight gain of chickens in each infection group to that in the healthy control group
1.5.3 Cecal lesion score: It is scored by referring to the method by Johnson and Reid (Johnson J, Reid W M. Anticoccidial drugs: lesion scoring techniques in battery and floor-pan experiments with chickens.
Experimental Parasitology, 1970, 28 (1): 30-36). Cecal lesion score=average lesion score in a group×10.
1.5.4 Oocyst value: Cecal contents from all the chickens in each group were well mixed. The number of oocysts per gram (OPG) was calculated via Mc-Master's method. Ratio of oocyst number=(OPG in the negative control group or drug addition group÷OPG in the positive control group)×100% If the ratio is 0-1%, oocyst value is 0; if the ratio is 2%-25%, oocyst value is 5; if the ratio is 26%-50%, oocyst value is 10; if the ratio is 51%-75%, oocyst value is 20; if the ratio is 76%-100%, oocyst value is 40.
1.5.5 Anticoccidial index: ACI=(relative weight gain rate+survival rate)−(cecal lesion score+oocyst value)

Series [1] is described as follows: Acute toxicity test (LD50) of AZL in rats, oral gavage. Type of series: in vivo, rat. Particulars: both sexes, Sprague Dawley, rat, in vivo, po, single oral gavage, improved Karber's method. How it is done:
(§1) Acute Toxicity Test (LD50) of AZL in Rats
(§2) AZL (99.10%): made by Shanghai Veterinary Research Institute, CAAS
(§3) Drug solvent: 0.5% sodium carboxymethyl cellulose
(§4) Before administration, AZL was added into 0.5% sodium carboxymethyl cellulose to prepare suspensions at different concentrations.
(§5) 1.2 Experimental animals: Specific pathogen-free (SPF) Sprague Dawley rats (50% female vs 50% male) were purchased from Shanghai Super-B&K laboratory animal Co., Ltd. (license number: SCXK (Hu): 2008-0016). Male and female rats were raised separately in the cages for more than 4 days before the experiments.
(§6) Through repeated preliminary experiments, the interval of LD0-LD100 was determined According to this interval, groups were divided and the interval between groups was determined. Eighty rats (180-220 g) were selected and randomly divided into 8 groups. Each group had 10 rats, with the same number of female and male. Drug dosage in 7 groups were 2358, 3000, 3817, 4856, 6178, 7860, and 10000 mg/kg, respectively. The rats in these groups received oral gavage once. The remaining one group was chosen as negative control group which was drenched orally with drug solvent. After administration, this group was continuously observed for 14 days to calculate the death rate.

The next series concerns Sprague Dawley rats. Described as above. To be noted: oral gavage once, 14 days. It is filed as in vivo, rat. How it is done: as §1, §2, §3, §4, §5, §6
The test system of a further series is rats. To be noted: acute oral, improved Karber's method; cited from earlier work.
The mark [2] stands for this setting: drug concentration in feed 1 mg/kg.
[3] abbreviates: drug concentration in feed 5 mg/kg.
Setting [4] is: drug concentration in feed 10 mg/kg.

Values joined by “and” are separate entries in the source; they are usually repeats but may differ in a detail not shown here. Identical values can stand only once. Like-named read-outs stand apart in the source and are kept apart here.

These results are taken from US20160022689A1, “Triazine compound for resisting coccidiosis in chickens” (SHANGHAI VETERINARY RESEARCH INSTITUTE, CHINESE ACADEMY OF …, priority 2013, published 2016).

For the compound `N#CC(c1ccc(Cl)cc1)c1c(Cl)cc(-n2ncc(=O)[nH]c2=O)cc1Cl` (centres unmarked) [Diclazuril, diclazuril, reference compound], in the series with Eimeria tenella (setting [2]), the “ACI (anticoccidial index)” value was 182.1, the Cecal lesion score is recorded as 5, the Survival rate % worked out at 100% and the “Relative weight gain rate %” value came out at 92.1%. In the series with Eimeria tenella (setting [2]), the Oocyst value is 5.

With `CC(=O)Nc1ccc(Oc2ccc(-n3ncc(=O)[nH]c3=O)cc2C)cc1` [AZL, 2-{3-methyl-4-(4′-acetamidophenoxy)phenyl}-1,2,4-triazine-3,5(2H,4H)^− diketone], the “ACI (anticoccidial index)” value is 180.8 in the series on Eimeria tenella (setting [3]); 189 and 189.1 with Eimeria tenella (setting [4]); 189 with Eimeria tenella (drug concentration in feed 10 mg/kg, listed as compound with structural formula (I)). Moreover, the Cecal lesion score in the series on Eimeria tenella (setting [3]) and with Eimeria tenella (setting [4]) was 5 throughout. The Survival rate % in the series on Eimeria tenella (setting [3]) and in the series with Eimeria tenella (setting [4]) was 100% each time. Besides, the “Relative weight gain rate %” value in the series on Eimeria tenella (setting [3]) was determined as 90.8%; with Eimeria tenella (setting [4]) it was 99.1%. Further, the Oocyst value with Eimeria tenella (setting [3]) and with Eimeria tenella (setting [4]) was 5 in each case. In addition, the median lethal dose (LD50) at 14 days in series [1] (14 days observation, read-out: LD50) is 4740 mg/kg; in series [1] (read-out: 95% confidence limit of LD50) it was 3750 to 5990 mg/kg. The Death rate % with Sprague Dawley rats (dosage 2358 mg/kg) was 0%; in the series on Sprague Dawley rats (dosage 3000 mg/kg), 30%; with Sprague Dawley rats (dosage 3817 mg/kg), 50%; with Sprague Dawley rats (dosage 4856 mg/kg), 50%; in the series with Sprague Dawley rats (dosage 6178 mg/kg), 70%; in the series with Sprague Dawley rats (dosage 7860 mg/kg) it was 70%. This compound had a Death rate % in the series on Sprague Dawley rats (dosage 10000 mg/kg) of 90%.

Turning to `Cc1cc(-n2ncc(=O)[nH]c2=O)ccc1Oc1ccc(N)cc1` [Compound with structural formula V, 2-{3-methyl-4-(4′-aminophenoxy)phenyl}-1,2,4-triazine-3,5(2H,4H)^− diketone], in the series on Eimeria tenella (setting [3]), the “ACI (anticoccidial index)” value was 151.5, the Cecal lesion score is recorded as 15, the Survival rate % is recorded as 100% and the “Relative weight gain rate %” value is 81.5%. Also, the Oocyst value with Eimeria tenella (setting [3]) came to 15. Moreover, in the series with Eimeria tenella (setting [4]), the “ACI (anticoccidial index)” value came out at 158.1, the Cecal lesion score came to 10, the Survival rate % is on record as 100% and the “Relative weight gain rate %” value is given as 83.1%. Further, the Oocyst value in the series on Eimeria tenella (setting [4]) is 15.

As for `Cc1cc(-n2ncc(=O)[nH]c2=O)ccc1Oc1ccc([N+](=O)[O-])cc1` [Compound with structural formula IV, 2-{3-methyl-4-(4′-nitrophenoxy)phenyl}-1,2,4-triazine-3,5(2H,4H)-diketone, reference compound], in the series on Eimeria tenella (setting [3]), the “ACI (anticoccidial index)” value is 182.2, the Cecal lesion score was determined as 5, the Survival rate % is on record as 100% and the “Relative weight gain rate %” value came out at 92.2%. The Oocyst value in the series on Eimeria tenella (setting [3]) amounted to 5. Further, in the series on Eimeria tenella (setting [4]), the “ACI (anticoccidial index)” value is 190.0, the Cecal lesion score was 5, the Survival rate % was 100% and the “Relative weight gain rate %” value was 95.0%. The Oocyst value in the series with Eimeria tenella (setting [4]) amounted to 0. Besides, in the series on rats, the “95% confidence limit of LD50” value was 644 to 916 mg/kg and the “median lethal dose (LD50)” value is listed as 768 mg/kg.

A word on the LD50: it is the dose at which mortality reaches 50%.
